From patent publication EP4169506B1, “PALMITOYLETHANOLAMIDE-BASED COMPOSITION IN THE FORM OF POWDERS WITH HIGH ENTERIC BIOACCESSIBILITY” (Geofarma S.r.l., priority 2021, dated 2023)

Test: Dispersion in tap water, then in simulated gastric and enteric liquid (GSF, FaSSIF V2)
Format: physicochemical
Settings: 500 mg in 100 ml tap water, then GSF and FaSSIF V2, 37°C, 250 rpm, magnetic stirring (Figure 10)
Text: • Figure 1. Representative image of the in vitro model of intestinal epithelium, with the Caco-2 cell monolayer grown on a Transwell® insert. • Figure 2. (A) Electron micrograph of enterocytes forming the Caco-2 monolayer with the microvilli and occluding junctions highlighted; (B) Confocal microscopy images highlighting the occluding junctions (red) and cell nuclei (blue). • Figure 3. Dimensional distribution of PEAMag®, normast® MPS microgranules and PEA of the invention measured by DLS at the end of the digestive process in vitro. • Figure 4. Bioaccessibility (A) and excreted fraction (B) of the PEA present in the three formulations, following exposure to the digestive process (* p<0.05). • Figure 5. Cell viability of intestinal epithelia exposed to digestive fluids in the absence of the formulations (0%) and increasing concentrations of PEAMag® (A), normast® MPS microgranules (B) and PEA of the invention (C) for 3 h (*cell viability < 70%). • Figure 6. TEER of intestinal epithelia exposed to digestive fluids in the absence of the formulations (0%) and increasing concentrations of PEAMag® (A), normast® MPS microgranules (B) and PEA of the invention (C) for 3 h. • Figure 7. […]

## CCCCCCCCCCCCCCCC(=O)NCCO [PEA, Palmitoylethanolamide]
  dispersion behaviour: emergence of the PEA on the surface of the liquid
